Measured values reported in patent publication US12258328B2, “6-membered heteroaryl-containing aminopyridine compounds as EGFR inhibitors” (YUHAN CORPORATION, priority 2021, dated 2025).
Like-named read-outs stand apart in the source and are kept apart here.

What was measured:
EGFR del19/C797S = EGFR del19/C797S (Homo sapiens, UniProt P00533, C797S/DEL746-750); test: Biochemical EGFR kinase assay (Lance Ultra TR-FRET), double mutant del19/C797S
Outline: (§1)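 In this biochemical assay, phosphorylation after a one-hour room-temperature reaction was detected with europium-labelled anti-phosphopeptide antibody at 2 nM final concentration.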

EGFR L858R/T790M/C797S = EGFR L858R/T790M/C797S (Homo sapiens, UniProt P00533, C797S/L858R/T790M); test: Biochemical EGFR kinase assay (Lance Ultra TR-FRET), triple mutant L858R/T790M/C797S
EGFR L858R/T790M/C797S, sequence (P00533 25-1210 T790M/C797S/L858R): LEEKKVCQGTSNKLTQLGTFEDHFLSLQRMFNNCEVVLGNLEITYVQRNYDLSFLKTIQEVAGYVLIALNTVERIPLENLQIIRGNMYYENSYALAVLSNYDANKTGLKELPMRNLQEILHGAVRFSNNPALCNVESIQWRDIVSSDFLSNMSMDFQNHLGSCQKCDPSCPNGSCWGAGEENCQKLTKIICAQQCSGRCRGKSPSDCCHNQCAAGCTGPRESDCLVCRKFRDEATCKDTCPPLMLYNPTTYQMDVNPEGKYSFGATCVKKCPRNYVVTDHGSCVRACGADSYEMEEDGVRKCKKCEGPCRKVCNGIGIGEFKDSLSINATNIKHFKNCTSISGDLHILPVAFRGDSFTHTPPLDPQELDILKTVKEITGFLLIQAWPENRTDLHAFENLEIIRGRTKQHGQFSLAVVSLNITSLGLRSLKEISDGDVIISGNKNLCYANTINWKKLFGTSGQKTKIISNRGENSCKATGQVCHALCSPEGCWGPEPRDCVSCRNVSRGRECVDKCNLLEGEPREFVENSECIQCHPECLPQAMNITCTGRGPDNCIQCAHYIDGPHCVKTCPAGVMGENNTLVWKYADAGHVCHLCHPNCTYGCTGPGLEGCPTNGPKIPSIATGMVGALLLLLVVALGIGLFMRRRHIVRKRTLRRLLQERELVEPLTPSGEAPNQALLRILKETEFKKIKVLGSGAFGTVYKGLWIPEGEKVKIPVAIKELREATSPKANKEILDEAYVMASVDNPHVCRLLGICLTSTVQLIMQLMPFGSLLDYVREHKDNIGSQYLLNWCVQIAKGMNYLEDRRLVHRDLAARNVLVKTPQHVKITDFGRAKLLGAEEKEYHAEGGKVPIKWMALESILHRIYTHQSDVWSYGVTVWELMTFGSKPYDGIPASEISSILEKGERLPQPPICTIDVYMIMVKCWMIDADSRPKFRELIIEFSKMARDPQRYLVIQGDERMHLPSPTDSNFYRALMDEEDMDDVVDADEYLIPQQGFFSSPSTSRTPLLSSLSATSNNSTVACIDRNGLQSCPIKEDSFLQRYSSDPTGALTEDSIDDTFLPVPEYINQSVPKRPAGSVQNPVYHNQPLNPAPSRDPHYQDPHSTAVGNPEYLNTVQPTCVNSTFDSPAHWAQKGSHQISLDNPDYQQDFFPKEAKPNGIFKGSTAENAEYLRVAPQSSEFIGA
Outline: as §1

EGFR del19/T790M/C797S = EGFR del19/T790M/C797S (Homo sapiens, UniProt P00533, C797S/DEL746-750/T790M); test: Biochemical EGFR kinase assay (Lance Ultra TR-FRET), triple mutant del19/T790M/C797S
Outline: as §1

EGFR wildtype = EGFR wildtype (Homo sapiens, UniProt P00533); test: Biochemical EGFR kinase assay (Lance Ultra TR-FRET), wildtype
EGFR wildtype, sequence (P00533 25-1210): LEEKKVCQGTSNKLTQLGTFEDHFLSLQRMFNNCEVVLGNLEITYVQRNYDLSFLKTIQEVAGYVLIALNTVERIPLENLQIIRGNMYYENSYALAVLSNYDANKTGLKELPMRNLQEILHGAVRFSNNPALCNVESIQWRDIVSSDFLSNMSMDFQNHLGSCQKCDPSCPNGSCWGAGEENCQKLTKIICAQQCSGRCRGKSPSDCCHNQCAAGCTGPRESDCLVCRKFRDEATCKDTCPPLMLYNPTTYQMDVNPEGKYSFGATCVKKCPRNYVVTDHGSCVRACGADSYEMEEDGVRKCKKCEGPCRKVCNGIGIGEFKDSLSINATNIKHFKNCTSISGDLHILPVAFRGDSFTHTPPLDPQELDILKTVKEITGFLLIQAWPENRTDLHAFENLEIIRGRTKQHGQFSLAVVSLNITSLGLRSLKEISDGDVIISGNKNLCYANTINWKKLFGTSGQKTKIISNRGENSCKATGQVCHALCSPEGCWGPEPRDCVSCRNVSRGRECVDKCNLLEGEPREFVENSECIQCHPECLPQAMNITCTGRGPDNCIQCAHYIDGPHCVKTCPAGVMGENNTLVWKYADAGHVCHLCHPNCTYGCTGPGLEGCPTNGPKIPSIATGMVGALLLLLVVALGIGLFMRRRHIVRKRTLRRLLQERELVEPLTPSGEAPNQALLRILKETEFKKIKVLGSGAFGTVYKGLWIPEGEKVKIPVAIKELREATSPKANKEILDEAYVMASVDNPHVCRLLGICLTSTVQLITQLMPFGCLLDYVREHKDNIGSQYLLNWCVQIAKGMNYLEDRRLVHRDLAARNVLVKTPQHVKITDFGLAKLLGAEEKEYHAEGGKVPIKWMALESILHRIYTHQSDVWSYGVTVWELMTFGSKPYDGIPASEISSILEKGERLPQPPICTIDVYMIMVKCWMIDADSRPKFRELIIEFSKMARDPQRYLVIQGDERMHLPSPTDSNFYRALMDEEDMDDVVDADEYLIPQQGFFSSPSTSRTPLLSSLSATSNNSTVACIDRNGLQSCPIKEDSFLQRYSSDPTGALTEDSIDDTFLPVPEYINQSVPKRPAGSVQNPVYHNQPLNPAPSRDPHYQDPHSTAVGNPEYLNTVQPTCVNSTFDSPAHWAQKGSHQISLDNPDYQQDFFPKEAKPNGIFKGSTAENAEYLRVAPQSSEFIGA
Outline: as §1

EGFR L858R/C797S = EGFR L858R/C797S (Homo sapiens, UniProt P00533, C797S/L858R); test: Biochemical EGFR kinase assay (Lance Ultra TR-FRET), double mutant L858R/C797S
EGFR L858R/C797S, sequence (P00533 25-1210 C797S/L858R): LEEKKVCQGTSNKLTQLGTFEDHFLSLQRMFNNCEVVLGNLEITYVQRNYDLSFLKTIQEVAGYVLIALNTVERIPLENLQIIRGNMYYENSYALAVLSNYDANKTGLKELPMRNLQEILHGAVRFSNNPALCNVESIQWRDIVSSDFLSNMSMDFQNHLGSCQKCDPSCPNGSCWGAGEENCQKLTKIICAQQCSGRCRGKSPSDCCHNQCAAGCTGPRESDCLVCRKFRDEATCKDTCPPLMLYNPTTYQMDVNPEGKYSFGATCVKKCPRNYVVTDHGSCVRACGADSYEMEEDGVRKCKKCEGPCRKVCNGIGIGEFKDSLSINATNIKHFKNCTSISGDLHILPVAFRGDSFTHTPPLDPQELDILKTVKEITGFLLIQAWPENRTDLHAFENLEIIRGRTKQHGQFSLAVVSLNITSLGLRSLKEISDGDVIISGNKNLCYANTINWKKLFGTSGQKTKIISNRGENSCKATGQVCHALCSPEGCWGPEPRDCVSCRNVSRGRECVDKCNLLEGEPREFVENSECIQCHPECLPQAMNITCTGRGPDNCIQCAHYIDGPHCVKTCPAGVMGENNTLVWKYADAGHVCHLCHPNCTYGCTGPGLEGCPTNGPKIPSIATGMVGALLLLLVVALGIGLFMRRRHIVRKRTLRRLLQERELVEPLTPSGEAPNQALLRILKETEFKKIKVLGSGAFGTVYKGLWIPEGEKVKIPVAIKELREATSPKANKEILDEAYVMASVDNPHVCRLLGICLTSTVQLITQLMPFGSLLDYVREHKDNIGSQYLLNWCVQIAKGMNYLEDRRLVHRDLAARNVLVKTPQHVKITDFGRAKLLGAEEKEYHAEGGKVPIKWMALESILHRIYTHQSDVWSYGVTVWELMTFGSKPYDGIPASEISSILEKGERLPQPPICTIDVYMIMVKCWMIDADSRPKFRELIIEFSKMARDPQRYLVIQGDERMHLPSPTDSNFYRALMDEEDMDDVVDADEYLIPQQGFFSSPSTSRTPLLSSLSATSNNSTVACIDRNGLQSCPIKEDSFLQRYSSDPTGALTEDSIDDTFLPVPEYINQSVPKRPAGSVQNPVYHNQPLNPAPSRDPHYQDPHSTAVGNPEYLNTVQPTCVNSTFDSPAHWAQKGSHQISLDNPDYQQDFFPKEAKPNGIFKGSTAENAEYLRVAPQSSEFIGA
Outline: as §1

[1] = ATP at Km, read-out: IC50 del19/C797S, Km ATP
[2] = ATP at Km, read-out: IC50 L858R/T790M/C797S, Km ATP
[3] = IC50 L858R/T790M/C797S, 100 μM ATP
[4] = ATP at Km, read-out: IC50 del19/T790M/C797S, Km ATP
[5] = IC50 del19/T790M/C797S, 100 μM ATP
[6] = ATP at Km, read-out: IC50 WT, Km ATP
[7] = ATP at Km, read-out: IC50 L858R/C797S, Km ATP
[8] = IC50 del19/C797S (nM) 100 μM ATP, 100 μM ATP
[9] = Km ATP, read-out: IC50 del19/C797S (nM) Km ATP
[10] = IC50 L858R/T790M/C797S (nM) 100 μM ATP, 100 μM ATP
[11] = Km ATP, read-out: IC50 L858R/T790M/C797S (nM) Km ATP
[12] = IC50 del19/T790M/C797S (nM) 100 μM ATP, 100 μM ATP
[13] = Km ATP, read-out: IC50 del19/T790M/C797S (nM) Km ATP
[14] = IC50 WT (nM) 100 μM ATP, 100 μM ATP
[15] = Km ATP, read-out: IC50 WT (nM) Km ATP
[16] = IC50 L858R/C797S (nM) 100 μM ATP, 100 μM ATP
[17] = Km ATP, read-out: IC50 L858R/C797S (nM) Km ATP

EGFR del19/C797S, sequence (P00533 with tags, fused parts or gaps DEL746-750/C797S): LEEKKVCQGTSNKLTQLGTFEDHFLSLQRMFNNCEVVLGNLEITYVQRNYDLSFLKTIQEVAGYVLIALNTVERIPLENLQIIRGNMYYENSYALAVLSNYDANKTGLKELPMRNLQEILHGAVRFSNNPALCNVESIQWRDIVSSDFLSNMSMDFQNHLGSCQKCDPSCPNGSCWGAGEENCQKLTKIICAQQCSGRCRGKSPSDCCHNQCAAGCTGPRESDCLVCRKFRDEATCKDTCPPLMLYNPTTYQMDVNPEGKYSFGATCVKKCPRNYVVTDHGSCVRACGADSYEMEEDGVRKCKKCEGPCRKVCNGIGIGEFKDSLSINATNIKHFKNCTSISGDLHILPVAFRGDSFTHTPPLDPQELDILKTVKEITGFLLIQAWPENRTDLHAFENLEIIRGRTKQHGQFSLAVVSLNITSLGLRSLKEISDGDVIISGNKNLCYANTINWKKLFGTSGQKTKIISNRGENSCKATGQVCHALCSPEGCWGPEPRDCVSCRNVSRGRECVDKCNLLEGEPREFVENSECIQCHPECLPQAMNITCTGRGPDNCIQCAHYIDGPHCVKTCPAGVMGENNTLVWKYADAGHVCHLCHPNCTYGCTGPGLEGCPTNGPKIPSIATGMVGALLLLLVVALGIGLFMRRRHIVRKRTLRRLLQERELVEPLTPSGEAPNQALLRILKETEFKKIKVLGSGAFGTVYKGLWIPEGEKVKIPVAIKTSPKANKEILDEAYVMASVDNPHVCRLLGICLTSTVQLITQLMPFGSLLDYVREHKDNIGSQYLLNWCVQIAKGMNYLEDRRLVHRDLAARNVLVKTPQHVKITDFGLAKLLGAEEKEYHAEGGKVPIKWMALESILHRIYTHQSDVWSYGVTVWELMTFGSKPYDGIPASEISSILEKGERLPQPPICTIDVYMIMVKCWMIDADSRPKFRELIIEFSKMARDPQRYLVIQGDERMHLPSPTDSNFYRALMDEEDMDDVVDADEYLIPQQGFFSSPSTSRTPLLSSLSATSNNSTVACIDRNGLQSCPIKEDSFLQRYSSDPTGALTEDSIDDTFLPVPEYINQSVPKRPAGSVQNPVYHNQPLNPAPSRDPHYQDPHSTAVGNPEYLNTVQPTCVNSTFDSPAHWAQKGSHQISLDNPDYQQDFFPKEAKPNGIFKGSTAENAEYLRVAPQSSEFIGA

| Compound | IC50 (EGFR del19/C797S; [1]) [nM] | IC50 (EGFR del19/C797S; IC50 del19/C797S, 100 μM ATP) [nM] | IC50 (EGFR L858R/T790M/C797S; [2]) [nM] | IC50 (EGFR L858R/T790M/C797S; [3]) [nM] | IC50 (EGFR del19/T790M/C797S; [4]) [nM] | IC50 (EGFR del19/T790M/C797S; [5]) [nM] | IC50 (EGFR wildtype; [6]) [nM] | IC50 (EGFR wildtype; IC50 WT, 100 μM ATP) [nM] | IC50 (EGFR L858R/C797S; [7]) [nM] | IC50 (EGFR L858R/C797S; IC50 L858R/C797S, 100 μM ATP) [nM] | IC50 (EGFR del19/C797S; [8]) [nM] | IC50 (EGFR del19/C797S; [9]) [nM] | IC50 (EGFR L858R/T790M/C797S; [10]) [nM] | IC50 (EGFR L858R/T790M/C797S; [11]) [nM] | IC50 (EGFR del19/T790M/C797S; [12]) [nM] | IC50 (EGFR del19/T790M/C797S; [13]) [nM] | IC50 (EGFR wildtype; [14]) [nM] | IC50 (EGFR wildtype; [15]) [nM] | IC50 (EGFR L858R/C797S; [16]) [nM] | IC50 (EGFR L858R/C797S; [17]) [nM] |
| --- | --- | --- | --- | --- | --- | --- | --- | --- | --- | --- | --- | --- | --- | --- | --- | --- | --- | --- | --- | --- |
| COC1CN(c2ccc(-c3cnc(Nc4ccnc(-c5cnn(S(=O)(=O)C6CC6)c5)n4)cc3N[C@H]3CC[C@@H](CO)CC3)nc2)C1 [Example 91, ((1s,4s)-4-((6′-((2-(1-(Cyclopropylsulfonyl)-1H-pyrazol-4-yl)pyrimidin-4-yl)amino)-5-(3-methoxyazetidin-1-yl)-[2,3′-bipyridin]-4′-yl)amino)cyclohexyl)methanol] |  |  |  |  |  |  |  |  |  |  | 2.8 | 0.9 | 1.1 | 0.9 | 1.3 | 0.5 | > 10000 | 2.5 | 9.7 | 0.8 |
| O=S(=O)(C1CC1)n1cc(-c2nccc(Nc3cc(N[C@H]4CC[C@@H](CO)CC4)c(-c4cc(CN5CCC(F)(F)CC5)ccn4)cn3)n2)cn1 [Example 113, ((1s,4s)-4-((6′-((2-(1-(Cyclopropylsulfonyl)-1H-pyrazol-4-yl)pyrimidin-4-yl)amino)-4-((4,4-difluoropiperidin-1-yl)methyl)-[2,3′-bipyridin]-4′-yl)amino)cyclohexyl)methanol] |  |  |  |  |  |  |  |  |  |  | 19.9 | 11 | 3.2 | 2.3 | 5.3 | 7.5 | > 10000 | 15 | 20.8 | 8.8 |
| CC1(O)CCC(Nc2cc(Nc3ccnc(-c4cnn(S(=O)(=O)C5CC5)c4)n3)ncc2-c2cnc(OC3CCOC3)cn2)CC1 (stereo not drawn) [Example 149, (1s,4s)-4-((2-((2-(1-(Cyclopropylsulfonyl)-1H-pyrazol-4-yl)pyrimidin-4-yl)amino)-5-(5-((tetrahydrofuran-3-yl)oxy)pyrazin-2-yl)pyridin-4-yl)amino)-1-methylcyclohexan-1-ol] |  |  |  |  |  |  |  |  |  |  |  | 1 |  | 0.3 |  | 0.4 |  | 11.2 |  | 0.4 |
| CN1CCN(Cc2cccc(-c3cnc(Nc4ccnc(-c5cnn(S(=O)(=O)C6CC6)c5)n4)cc3N[C@H]3CC[C@@](C)(O)CC3)n2)CC1 [Example 28, (1s,4s)-4-((6′-((2-(1-(Cyclopropylsulfonyl)-1H-pyrazol-4-yl)pyrimidin-4-yl)amino)-6-((4-methylpiperazin-1-yl)methyl)-[2,3′-bipyridin]-4′-yl)amino)-1-methylcyclohexan-1-ol] |  |  |  |  |  |  |  |  |  |  | 0.6 |  | 0.1 |  | 0.1 |  | 1530 |  | 1.6 |  |
| CN1CCN(c2ccc(-c3cnc(Nc4ccnc(-c5cnn(S(=O)(=O)C6CC6)c5)n4)cc3N[C@H]3CC[C@@H](CO)CC3)nc2)CC1 [Example 85, ((1s,4s)-4-((6′-((2-(1-(cyclopropylsulfonyl)-1H-pyrazol-4-yl)pyrimidin-4-yl)amino)-5-(4-methylpiperazin-1-yl)-[2,3′-bipyridin]-4′-yl)amino)cyclohexyl)methanol] |  |  |  |  |  |  |  |  |  |  | 0.3 | 0.1 | 0.3 | 0.1 | 0.4 | 0.4 | 31.7 | 0.2 | 0.2 | 0.1 |
| CN1CCN(c2ccc(-c3cnc(Nc4ccnc(-c5cnn(S(=O)(=O)C6CC6)c5)n4)cc3N[C@H]3CC[C@@](C)(O)CC3)nc2)CC1 [Example 83, (1s,4s)-4-((6′-((2-(1-(Cyclopropylsulfonyl)-1H-pyrazol-4-yl)pyrimidin-4-yl)amino)-5-(4-methylpiperazin-1-yl)-[2,3′-bipyridin]-4′-yl)amino)-1-methylcyclohexan-1-ol] |  |  |  |  |  |  |  |  |  |  | 0.2 | 0.2 | 0.3 | 0.2 | 0.6 | 0.7 | 24.9 | 0.2 | 0.4 | 0.1 |
| CN(C)C[C@H]1CC[C@@H](Nc2cc(Nc3ccnc(-c4cnn(S(=O)(=O)C5CC5)c4)n3)ncc2-c2cnc(OC(F)F)cn2)CC1 [Example 131, N^2-(2-(1-(Cyclopropylsulfonyl)-1H-pyrazol-4-yl)pyrimidin-4-yl)-5-(5-(difluoromethoxy)pyrazin-2-yl)-N^4-((1s,4s)-4-((dimethylamino)methyl)cyclohexyl)pyridine-2,4-diamine] |  |  |  |  |  |  |  |  |  |  |  | 2.1 |  | 0.1 |  | 0.2 |  | 8.1 |  | 2.2 |

Next, values leading:

| IC50 (EGFR del19/C797S; [1]) [nM] | IC50 (EGFR del19/C797S; IC50 del19/C797S, 100 μM ATP) [nM] | IC50 (EGFR L858R/T790M/C797S; [2]) [nM] | IC50 (EGFR L858R/T790M/C797S; [3]) [nM] | IC50 (EGFR del19/T790M/C797S; [4]) [nM] | IC50 (EGFR del19/T790M/C797S; [5]) [nM] | IC50 (EGFR wildtype; [6]) [nM] | IC50 (EGFR wildtype; IC50 WT, 100 μM ATP) [nM] | IC50 (EGFR L858R/C797S; [7]) [nM] | IC50 (EGFR L858R/C797S; IC50 L858R/C797S, 100 μM ATP) [nM] | IC50 (EGFR del19/C797S; [8]) [nM] | IC50 (EGFR del19/C797S; [9]) [nM] | IC50 (EGFR L858R/T790M/C797S; [10]) [nM] | IC50 (EGFR L858R/T790M/C797S; [11]) [nM] | IC50 (EGFR del19/T790M/C797S; [12]) [nM] | IC50 (EGFR del19/T790M/C797S; [13]) [nM] | IC50 (EGFR wildtype; [14]) [nM] | IC50 (EGFR wildtype; [15]) [nM] | IC50 (EGFR L858R/C797S; [16]) [nM] | IC50 (EGFR L858R/C797S; [17]) [nM] | Compound |
| --- | --- | --- | --- | --- | --- | --- | --- | --- | --- | --- | --- | --- | --- | --- | --- | --- | --- | --- | --- | --- |
| 0.2 | 0.3 | 0.1 | 0.2 | 0.1 | 0.2 | 0.3 | 243 | 0.1 | 0.6 |  |  |  |  |  |  |  |  |  |  | CN(C)CCOc1ccc(-c2cnc(Nc3ccnc(-c4cnn(S(=O)(=O)C5CC5)c4)n3)cc2N[C@H]2CC[C@@](C)(O)CC2)nc1 [Example 208, (1s,4s)-4-((6′-((2-(1-(Cyclopropylsulfonyl)-1H-pyrazol-4-yl)pyrimidin-4-yl)amino)-5-(2-(dimethylamino)ethoxy)-[2,3′-bipyridin]-4′-yl)amino)-1-methylcyclohexan-1-ol] |
| 1.1 |  | 0.3 | 0.5 | 1.1 | 1.4 | 2.1 | 767 | 1 | 5.7 |  |  |  |  |  |  |  |  |  |  | CN(C)C[C@H]1CC[C@@H](Nc2cc(Nc3ccnc(-c4cnn(S(=O)(=O)C5CC5)c4)n3)ncc2-c2ccc(CC(F)(F)F)cn2)CC1 [Example 221, N^6′-(2-(1-(Cyclopropylsulfonyl)-1H-pyrazol-4-yl)pyrimidin-4-yl)-N^4′-((1s,4s)-4-((dimethylamino)methyl)cyclohexyl)-5-(2,2,2-trifluoroethyl)-[2,3′-bipyridine]-4′,6′-diamine] |
| 0.6 | 0.7 | 0.1 | 0.3 | 0.3 | 0.5 | 1.4 | 495 | 1 | 2.5 |  |  |  |  |  |  |  |  |  |  | O=S(=O)(C1CC1)n1cc(-c2nccc(Nc3cc(N[C@H]4CC[C@@H](CO)CC4)c(-c4cccc(F)n4)cn3)n2)cn1 [Example 272, ((1s,4s)-4-((6′-((2-(1-(Cyclopropylsulfonyl)-1H-pyrazol-4-yl)pyrimidin-4-yl)amino)-6-fluoro-[2,3′-bipyridin]-4′-yl)amino)cyclohexyl)methanol] |
| 0.3 | 0.3 | 0.1 | 0.3 | 0.2 | 0.3 |  | 735 | 0.1 | 2.5 |  |  |  |  |  |  |  |  |  |  | CN1CCC(Oc2cccc(-c3cnc(Nc4ccnc(-c5cnn(S(=O)(=O)C6CC6)c5)n4)cc3N[C@H]3CC[C@@](C)(O)CC3)n2)CC1 [Example 286, (1s,4s)-4-((6′-((2-(1-(Cyclopropylsulfonyl)-1H-pyrazol-4-yl)pyrimidin-4-yl)amino)-6-((1-methylpiperidin-4-yl)oxy)-[2,3′-bipyridin]-4′-yl)amino)-1-methylcyclohexan-1-ol] |
| 12.5 |  | 18.6 |  | 33 |  | 168 |  | 39.6 |  |  |  |  |  |  |  |  |  |  |  | CC(O)(c1ccc(-c2cnc(Nc3ccnc(-c4cnn(S(=O)(=O)C5CC5)c4)n3)cc2NC2CCC(F)CC2)nc1)C(F)(F)F (stereo not drawn) [Example 266, 2-(6′-((2-(1-(Cyclopropylsulfonyl)-1H-pyrazol-4-yl)pyrimidin-4-yl)amino)-4′-((4-fluorocyclohexyl)amino)-[2,3′-bipyridin]-5-yl)-1,1,1-trifluoropropan-2-ol] |
|  | 2.4 | 0.1 | 0.4 | 0.3 | 0.5 | 6.9 | 9480 | 0.5 | 30.1 |  |  |  |  |  |  |  |  |  |  | C[C@]1(O)CC[C@@H](Nc2cc(Nc3ccnc(-c4cnn(S(=O)(=O)C5CC5)c4)n3)ncc2-c2cc(OCCN3CCOCC3)ccn2)CC1 [Example 211, (1s,4s)-4-((6′-((2-(1-(Cyclopropylsulfonyl)-1H-pyrazol-4-yl)pyrimidin-4-yl)amino)-4-(2-morpholinoethoxy)-[2,3′-bipyridin]-4′-yl)amino)-1-methylcyclohexan-1-ol] |
| 0.5 | 1.3 |  | 0.7 | 1.3 | 0.9 |  | 416 | 0.4 |  |  |  |  |  |  |  |  |  |  |  | CC(C)(O)c1ccc(-c2cnc(Nc3ccnc(-c4cnn(S(=O)(=O)C5CC5)c4)n3)cc2N[C@H]2CC[C@@H](C(C)(C)O)CC2)nc1 [Example 169, 2-(6′-((2-(1-(Cyclopropylsulfonyl)-1H-pyrazol-4-yl)pyrimidin-4-yl)amino)-4′-(((1s,4s)-4-(2-hydroxypropan-2-yl)cyclohexyl)amino)-[2,3′-bipyridin]-5-yl)propan-2-ol] |
